Assay [1] deals with Hinf. Put plainly: Hinf MIC. Type of assay: cell-based, Haemophilus influenzae. Particulars: Haemophilus influenzae; read-out: Hinf_MIC.
In assay [2] the test system is M. tuberculosis. The assay is described as follows: MIC testing: Microplate Alamar Blue Assay. Type of assay: cell-based, Mycobacterium tuberculosis. Particulars: Mycobacterium tuberculosis, lowest concentration preventing color change from blue to pink, read-out: Mtu MIC.
The test system of assay [3] is Spn. The assay is described as follows: Spn MIC. Type of assay: cell-based, Streptococcus pneumoniae. To be noted: Streptococcus pneumoniae; read-out: Spn_MIC.
For assay [4], the system named is Sau. The assay is described as follows: Sau MIC. Type of assay: cell-based, Staphylococcus aureus. To be noted: Staphylococcus aureus; read-out: Sau_MIC.
Assay [5] has as its target Msmeg (Mycolicibacterium smegmatis, UniProt A0QNE0). Put plainly: Msmeg IC50. Format: biochemical.

SMILES strings stand for the structures. pIC50: −log10 of the molar value. Values after ≈ are worked out from the molar mass of the structure shown.

Broadly, the pIC50 is the negative decadic logarithm of the IC50, by convention in mol/L. A lower pIC50 goes with a high IC50.

Sequence of Msmeg (A0QNE0 whole entry): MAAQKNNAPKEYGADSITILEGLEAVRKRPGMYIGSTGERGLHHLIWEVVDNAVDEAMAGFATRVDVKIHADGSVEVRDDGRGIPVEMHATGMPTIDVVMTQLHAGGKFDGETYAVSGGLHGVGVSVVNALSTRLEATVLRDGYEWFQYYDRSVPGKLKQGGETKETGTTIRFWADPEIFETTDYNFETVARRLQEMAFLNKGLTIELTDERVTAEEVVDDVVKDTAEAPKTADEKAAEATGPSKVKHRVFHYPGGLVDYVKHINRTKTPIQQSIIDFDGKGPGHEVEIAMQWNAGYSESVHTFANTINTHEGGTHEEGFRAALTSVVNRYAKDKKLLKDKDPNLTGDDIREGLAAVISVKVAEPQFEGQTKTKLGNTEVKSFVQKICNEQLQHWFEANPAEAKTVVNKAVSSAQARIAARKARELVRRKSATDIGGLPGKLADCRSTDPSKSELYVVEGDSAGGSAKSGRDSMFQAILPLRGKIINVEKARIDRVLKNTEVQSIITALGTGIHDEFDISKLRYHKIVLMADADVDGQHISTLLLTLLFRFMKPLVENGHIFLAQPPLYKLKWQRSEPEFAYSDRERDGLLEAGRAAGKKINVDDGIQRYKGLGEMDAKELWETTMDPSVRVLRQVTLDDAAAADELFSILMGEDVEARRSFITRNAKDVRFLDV

Regarding `CO[C@H]1CN(c2nc(-c3nccn3C)c(C(=O)O)s2)CC[C@H]1NC(=O)c1[nH]c(C)c(Cl)c1Br` [Example 3, 2-((3S,4R)-4-{[(3-bromo-4-chloro-5-methyl-1H-pyrrol-2-yl)carbonyl]amino}-3-methoxypiperidin-1-yl)-4-(1-methyl-1H-imidazol-2-yl)-1,3-thiazole-5-carboxylic acid], the MIC in assay [1] stood at 0.25 µg/mL (≈ 0.448 µM); in assay [2] it was 0.125 µg/mL (≈ 0.224 µM); in assay [3] it was 0.125 µg/mL (≈ 0.224 µM); in assay [4] it was 0.125 µg/mL (≈ 0.224 µM). Moreover, the pIC50 in assay [5] is 8.22.

Regarding `Cc1[nH]c(C(=O)N[C@@H]2CCN(c3nc(-c4ncnn4C)c(C(=O)O)s3)C[C@@H]2OCC2CC2)c(Br)c1Cl` [Example 12, 2-((3S,4R)-4-(3-bromo-4-chloro-5-methyl-1H-pyrrole-2-carboxamido)-3-(cyclopropylmethoxy)piperidin-1-yl)-4-(1-methyl-1H-1,2,4-triazol-5-yl) thiazole-5-carboxylic acid], the MIC in assay [1] came out at 0.125 µg/mL (≈ 0.209 µM); in assay [2], 0.015 µg/mL (≈ 0.025 µM); in assay [3], 0.125 µg/mL (≈ 0.209 µM); in assay [4], 0.125 µg/mL (≈ 0.209 µM). Also, in assay [5], the pIC50 is 8.40.

For the compound `COCCn1ncnc1-c1nc(N2CC[C@@H](NC(=O)c3[nH]c(C)c(Cl)c3Br)[C@@H](F)C2)sc1C(=O)O` [Example 20, 2-((3S,4R)-4-(3-bromo-4-chloro-5-methyl-1H-pyrrole-2-carboxamido)-3-fluoropiperidin-1-yl)-4-(1-(2-methoxyethyl)-1H-1,2,4-triazol-5-yl) thiazole-5-carboxylic acid], the MIC in assay [1], in assay [2], in assay [3] and in assay [4] was 0.125 µg/mL (≈ 0.212 µM) throughout. For the same compound, the pIC50 in assay [5] was 8.40.

Consider `Cc1[nH]c(C(=O)N[C@@H]2CCN(c3nc(-c4ncnn4C)c(C(=O)O)s3)C[C@@H]2F)c(Cl)c1Br` [Example 6, 2-((3S,4R)-4-{[(4-Bromo-3-chloro-5-methyl-1H-pyrrol-2-yl)carbonyl]amino}-3-fluoropiperidin-1-yl)-4-(1-methyl-1H-1,2,4-triazol-5-yl)-1,3-thiazole-5-carboxylic acid], for which the MIC in assay [1] is 0.25 µg/mL (≈ 0.457 µM); in assay [2], 1 µg/mL (≈ 1.83 µM); in assay [3], 0.5 µg/mL (≈ 0.914 µM); in assay [4] it was 0.125 µg/mL (≈ 0.229 µM). In assay [5], this compound gave a negative-log IC50 (pIC50) of 8.30.

The values are drawn from US20120022107A1, “2-(PIPERIDIN-1-YL)-4-AZOLYL-THIAZOLE-5-CARBOXYLIC ACID DERIVATIVES AGAINST BACTERIAL INFECTIONS” (ASTRAZENECA AB, priority 2008, published 2012).
